# Measurements reported in US20240174644A1, “QUINOXALINE UREA INHIBITORS OF IKK-BETA AND NF-KB” (BOARD OF REGENTS OF THE UNIVERSITY OF NEBRASKA, priority 2021, published 2024).
# Tested on: MM1S cells
# Assay: Growth inhibition assay in MM1S cells (Presto blue)
# Type: cell-based
# Conditions: Homo sapiens, MM1.S, 120 h, MM1S cells (multiple myeloma model), 5-day incubation, triplicate
# Procedure: MM1S cells were seeded (20K cells/well) and increasing concentrations of the inhibitors were added to these cells in triplicate. The plates were incubated for 5 -days after which Presto blue (544/590 ex/em wavelengths) was added and plates read after additional 15 min incubation at 37° C. The IC50 values were derived by curve fitting the data.
row,SMILES,IC50 [µM]
1,Cn1cc(-c2cnc3ccc(NC(=O)Nc4ccc(F)c(C(F)(F)F)c4F)cc3n2)cn1 [Compound 9],0.75 ± 0.01
2,Cn1cc(-c2cnc3ccc(NC(=O)Nc4ccc(F)c(Br)c4)cc3n2)cn1 [Compound 1],5.43 ± 0.16
3,Cn1cc(-c2cnc3ccc(NC(=O)Nc4cccc(Br)c4)cc3n2)cn1 [Compound 2],2.83 ± 0.09
4,"Cn1cc(-c2cnc3ccc(NC(=O)Nc4ccc(F)c(Br)c4)cc3c2)cn1 [Compound 6, 1-(3-Bromo-4-fluorophenyl)-3-(3-(1-methyl-1H-pyrazol-4-yl)quinolin-6-yl)urea]",10.6 ± 0.4
5,Cn1cc(-c2cnc3ccc(NC(=O)Nc4ccc(F)c(C(F)(F)F)c4)cc3n2)cn1 [Compound 8],5.38 ± 0.13
6,"Cn1ccc(-c2cnc3ccc(NC(=O)Nc4ccc(F)c(Br)c4)cc3n2)c1 [Compound 7, 1-(3-Bromo-4-fluorophenyl)-3-(3-(1-methyl-1 H-pyrrol-3-yl)quinoxalin-6-yl)urea]",2.85 ± 0.09
7,"Cn1cc(-c2cnc3ccc(NC(=O)Nc4ccc(F)cc4)cc3n2)cn1 [Compound 3, 1-(4-fluorophenyl)-3-(3-(1-methyl-1H-pyrazol-4-yl)quinoxalin-6-yl)urea]",> 20
8,Cn1cc(-c2cnc3ccc(NC(=O)Cc4ccc(F)c(Br)c4)cc3n2)cn1 [Compound 4],4.67 ± 0.09
9,Cn1cc(-c2ccc3ccc(NC(=O)Nc4ccc(F)c(Br)c4)cc3n2)cn1 [Compound 5],5.56 ± 0.66

# Tested on: caspase 3/7
# Assay: Caspase 3/7 activation assay in MM1S cells (Apo-One homogeneous caspase 3/7 assay)
# Type: cell-based
# Conditions: inhibitor 10 μM, 24 h, fold change relative to the DMSO control
# Procedure: MM1 S cells were seeded (25K cells/well) and inhibitors (10 μM) were added to these cells in triplicate. The plates were incubated for 24 h. Under multiplexing conditions, the cell viability using Alamar Blue assay and caspase activity using Apo-One homogeneous caspase 3/7 assay was determined. Data represented as fold change relative to the DMSO control.
row,SMILES,Caspase 3/7 activation [fold change]
1,Cn1cc(-c2cnc3ccc(NC(=O)Nc4ccc(F)c(C(F)(F)F)c4F)cc3n2)cn1 [Compound 9],9.79 ± 2.47
2,Cn1cc(-c2cnc3ccc(NC(=O)Nc4cccc(Br)c4)cc3n2)cn1 [Compound 2],1.06 ± 0.03
3,"Cn1cc(-c2cnc3ccc(NC(=O)Nc4ccc(F)c(Br)c4)cc3c2)cn1 [Compound 6, 1-(3-Bromo-4-fluorophenyl)-3-(3-(1-methyl-1H-pyrazol-4-yl)quinolin-6-yl)urea]",1.36 ± 0.04
4,Cn1cc(-c2cnc3ccc(NC(=O)Nc4ccc(F)c(C(F)(F)F)c4)cc3n2)cn1 [Compound 8],1.96 ± 0.05
5,"Cn1ccc(-c2cnc3ccc(NC(=O)Nc4ccc(F)c(Br)c4)cc3n2)c1 [Compound 7, 1-(3-Bromo-4-fluorophenyl)-3-(3-(1-methyl-1 H-pyrrol-3-yl)quinoxalin-6-yl)urea]",1.51 ± 0.01
6,"Cn1cc(-c2cnc3ccc(NC(=O)Nc4ccc(F)cc4)cc3n2)cn1 [Compound 3, 1-(4-fluorophenyl)-3-(3-(1-methyl-1H-pyrazol-4-yl)quinoxalin-6-yl)urea]",1.03 ± 0.06
